From US20190204402A1, “METHOD FOR POST-PROCESSING MRI IMAGES TO OBTAIN HEPATIC PERFUSION AND TRANSPORT PARAMETERS” (INSERM (INSTITUT NATIONAL DE LA SANTE DE LA RECHERCHE …, priority 2016, published 2019)
Values joined by “and” are separate entries in the source; they are usually repeats but may differ in a detail not shown here. Identical values can stand only once.

System: liver of patients with chronic liver diseases
Experiment: Dynamic gadoxetate-enhanced MR imaging with dual-input three-compartment pharmacokinetic model, patients with chronic liver diseases
Type: in vivo, human
Procedure: The feasibility of the method was evaluated in a prospective study with liver biopsy as a gold standard on patients with liver chronic liver diseases. The institutional ethics committee approved the protocol and informed consent was obtained from each subject. Twenty-one consecutive patients (4 women, 17 men; mean age, 51.0±10.2 years) who were suspected of having chronic liver disease on clinical and biological data underwent in the same period liver biopsy and MR imaging. Mean delay between MR imaging and liver biopsy was 2.5 days (range: 0-20 days). All subjects were fasting during six hours before MR imaging. Exclusion criteria were the usual contra-indications for MR imaging.
Percutaneous liver biopsy was performed with a 1.4-mm-diameter needle (Hepafix; Braun, Melsungen, Germany). In 6 patients with ascites and/or trouble of blood crasis, liver biopsy was performed through a transjugular approach using a catheter needle with a diameter of 1.1 mm (Cook Bloomington, Ind., USA). The liver samples were fixed in buffered formalin and embedded in paraffin. Sections, 4 μm thick, were stained with hematoxylin-eosin and Masson trichrome and assessed by a pathologist blinded to the clinical data and to the results of MR imaging. The stage of fibrosis from F0 to F4 was evaluated semiquantitatively on Masson trichrome-stained slides according to the METAVIR staging system. For further analysis of fibrosis severity, a three-level staging of fibrosis was used (F0-F1: minimal fibrosis, F2-F3: intermediate fibrosis, and F4: cirrhosis). Moreover, patients with F≥2 were considered having significant fibrosis.
MR imaging was performed on a Siemens Skyra 3.0 T system (Siemens Medical Solutions, Erlangen, Germany). […] The signal was collected with the 32-channel phased array body and the spine coils.
Gadoxetate (Primovist, Bayer, Berlin, Germany) was injected intravenously using an automatic injector (Medrad Spectris Solaris, Warrendale, PA) with an injection rate of 1 mL·s^-1 and flushed with physiologic saline (same volume and injection rate). The gadoxetate dose was 0.025 mmol·kg^-1.
Dynamic liver imaging was started simultaneously with the intravenous injection of gadoxetate and was performed in free breathing.
To do this, pauses were added between dynamics as follow: for the 280 first dynamics: no pause, the effective temporal resolution was 2.1 s; for the next 150 dynamics: 5 s pause, the effective temporal resolution was 7.1 s, for the 60 last dynamics; 8 s pause, the effective temporal resolution was 10.1 s. Dynamic acquisition duration was close to 38 minutes.
To simultaneously quantify hepatic micro-perfusion and function transport parameters, a model was developed. In the liver, the quantity of gadoxetate Q between τ and τ+dτ can be expressed as the difference between incoming Qin and outgoing gadoxetate quantities Qout. This means that:
To express R(t) with kinetic indices kij, the liver is modeled with a model according to which the liver is a dual input three compartments. The three compartments are the extracellular compartment, the hepatocyte compartment and the intrahepatic bile ducts. The extracellular compartment comprises the intravascular compartment and the Disse space's.
From the motion corrected dynamic frames, arterial and portal input were recorded with freehand regions of interest (ROI) drawn in the abdominal aorta and the portal vein respectively. Tissue response was measured from a ROI placed in the right hepatic lobe anterior segment (segments V-VIII) and the right lobe posterior segment (segments VI-VII), two large ROIs covering an extended region without visible large vessels were drawn on three central slices. For inputs function and tissue response, signal intensity was converted into relative gadoxetate concentration as follows:
To convert blood concentration into plasma concentration, the input functions were normalized by one minus hematocrit. A hematocrit of 45% was assumed in this study. […]

[1] = intermediate fibrosis (F2-F3), n = 8
[2] = minimal fibrosis (F0-F1), n = 9

- Biliary efflux (cirrhosis (F4), n = 4): 0.31±0.57 mL · min^−1 · 100 g^−1
- E (hepatocyte uptake fraction) (cirrhosis (F4), n = 4): 3.4±2.5%
- MTT (extracellular mean transit time) (cirrhosis (F4), n = 4): 30.1 ± 12.5 s and 29.7 ± 9.7 s
- Sinusoidal backflux (cirrhosis (F4), n = 4): 0.0012±0.002 mL · min^−1 · 100 g^−1
- Ve (extracellular volume) (cirrhosis (F4), n = 4): 30.1 ± 12.5%
- Biliary efflux [1]: 1.5±0.5 mL · min^−1 · 100 g^−1
- E (hepatocyte uptake fraction) [1]: 8.7±3.1%
- MTT (extracellular mean transit time) [1]: 14.1 ± 3.9 s
- Sinusoidal backflux [1]: 0.021 ± 0.013 mL · min^−1 · 100 g^−1
- Ve (extracellular volume) [1]: 21.8 ± 6.5%
- Biliary efflux [2]: 3.2±1.0 mL · min^−1 · 100 g^−1
- E (hepatocyte uptake fraction) [2]: 12.0±3.8%
- MTT (extracellular mean transit time) [2]: 15.0 ± 5.0 s
- Sinusoidal backflux [2]: 0.035±0.012 mL · min^−1 · 100 g^−1
- Ve (extracellular volume) [2]: 20.8 ± 6.2%
- k3 (biliary efflux), parametric map (single F0 patient, FIG. 13): 3.53 mL·min^-1·100 g^-1
- k3 (biliary efflux), parametric map (single F1 patient, FIG. 14): 3.67 mL·min^-1·100 g^-1
- k3 (biliary efflux), parametric map (single F2 patient, FIG. 15): 2.23 mL·min^-1·100 g^-1
- k3 (biliary efflux), parametric map (single F3 patient, FIG. 16): 1.64 mL·min^-1·100 g^-1
SMILES: CCOc1ccc(C[C@@H](CN(CCN(CC(=O)[O-])CC(=O)[O-])CC(=O)[O-])N(CC(=O)[O-])CC(=O)[O-])cc1.[Gd+3].[H+].[H+] [gadoxetate]
